According to ChEMBL document CHEMBL5465560, “Selectivity Literature for EUbOPEN Chemogenomic Library” (2024):

What was measured:
[1] = target: T1, Ephrin type-B receptor 1 (Homo sapiens) (UniProt P54762); settings: at 10 µM
T1 sequence (whole entry): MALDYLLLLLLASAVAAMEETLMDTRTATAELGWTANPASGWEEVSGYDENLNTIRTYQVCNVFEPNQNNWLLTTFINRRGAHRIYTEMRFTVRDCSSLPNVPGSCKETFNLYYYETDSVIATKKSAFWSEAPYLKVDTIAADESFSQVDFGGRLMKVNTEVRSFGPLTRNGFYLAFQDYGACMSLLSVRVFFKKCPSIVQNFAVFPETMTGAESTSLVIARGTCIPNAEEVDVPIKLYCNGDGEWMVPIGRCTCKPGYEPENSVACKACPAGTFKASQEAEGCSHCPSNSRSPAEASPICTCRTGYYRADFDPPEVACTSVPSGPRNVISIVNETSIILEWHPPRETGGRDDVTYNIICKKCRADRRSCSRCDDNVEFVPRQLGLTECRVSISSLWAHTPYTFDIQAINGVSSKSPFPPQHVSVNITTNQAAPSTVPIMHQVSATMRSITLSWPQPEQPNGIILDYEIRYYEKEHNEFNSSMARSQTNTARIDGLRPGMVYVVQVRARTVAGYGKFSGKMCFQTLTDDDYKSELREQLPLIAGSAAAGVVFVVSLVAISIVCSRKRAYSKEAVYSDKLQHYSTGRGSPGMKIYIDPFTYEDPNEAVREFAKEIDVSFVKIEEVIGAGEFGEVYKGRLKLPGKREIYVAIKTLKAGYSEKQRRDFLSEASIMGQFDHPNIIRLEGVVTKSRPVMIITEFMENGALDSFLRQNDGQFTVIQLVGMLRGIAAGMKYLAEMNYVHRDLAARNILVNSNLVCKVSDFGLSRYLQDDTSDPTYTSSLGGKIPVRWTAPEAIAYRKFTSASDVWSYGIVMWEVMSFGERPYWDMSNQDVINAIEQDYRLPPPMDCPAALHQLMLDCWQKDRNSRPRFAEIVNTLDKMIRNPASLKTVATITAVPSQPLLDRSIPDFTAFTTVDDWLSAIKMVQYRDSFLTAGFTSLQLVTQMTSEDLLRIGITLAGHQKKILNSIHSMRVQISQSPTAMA

[2] = target: Serine/threonine-protein kinase mTOR (Homo sapiens, UniProt P42345); test: Selectivity interaction (Kinase panel (KiNativ target engagement assay in Jurkat cells)) EUB0001635a MTOR; format: cell-based; settings: Selectivity number of off-targets 0.0, Selectivity number of targets 233.0, Source Knowledge https://www.sciencedirect.com/science/article/pii/S2451945619300674?via%3Dihub, at 1 µM
[3] = target: Cyclin-dependent kinase 3 (Homo sapiens) (UniProt Q00526); test: Selectivity interaction (KinomeScan (DiscoverX)) EUB0000666a CDK3; settings: at 10 µM
Chain of Cyclin-dependent kinase 3 (Homo sapiens) (Q00526 whole entry, looked up): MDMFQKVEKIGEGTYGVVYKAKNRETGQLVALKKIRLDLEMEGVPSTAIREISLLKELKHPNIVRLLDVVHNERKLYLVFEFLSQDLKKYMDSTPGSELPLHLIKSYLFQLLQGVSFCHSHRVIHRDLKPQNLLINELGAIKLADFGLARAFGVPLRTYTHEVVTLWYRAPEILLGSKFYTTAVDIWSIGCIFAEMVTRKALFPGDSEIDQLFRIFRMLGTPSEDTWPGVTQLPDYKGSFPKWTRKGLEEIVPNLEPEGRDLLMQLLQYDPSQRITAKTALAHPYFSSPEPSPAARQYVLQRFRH

[4] = target: Interferon-induced, double-stranded RNA-activated protein kinase (Homo sapiens) (UniProt P19525); test: Selectivity interaction (KinomeScan (DiscoverX)) EUB0000666a EIF2AK2; settings: at 10 µM
Chain of Interferon-induced, double-stranded RNA-activated protein kinase (Homo sapiens) (P19525 whole entry): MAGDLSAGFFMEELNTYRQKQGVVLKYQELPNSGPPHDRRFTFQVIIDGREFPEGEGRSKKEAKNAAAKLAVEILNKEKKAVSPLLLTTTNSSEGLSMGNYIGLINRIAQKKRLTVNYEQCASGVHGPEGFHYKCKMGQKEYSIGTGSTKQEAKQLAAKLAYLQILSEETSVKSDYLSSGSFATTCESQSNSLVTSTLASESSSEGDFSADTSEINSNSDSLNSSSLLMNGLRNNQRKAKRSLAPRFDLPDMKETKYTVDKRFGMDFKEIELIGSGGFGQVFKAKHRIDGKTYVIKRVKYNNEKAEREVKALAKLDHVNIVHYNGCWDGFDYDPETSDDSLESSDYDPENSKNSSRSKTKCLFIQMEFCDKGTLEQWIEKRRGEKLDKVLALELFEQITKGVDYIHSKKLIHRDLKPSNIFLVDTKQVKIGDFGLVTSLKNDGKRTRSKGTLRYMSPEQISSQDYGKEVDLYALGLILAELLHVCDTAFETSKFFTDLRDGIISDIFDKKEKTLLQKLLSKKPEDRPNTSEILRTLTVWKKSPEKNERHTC

[5] = target: Death-associated protein kinase 2 (Homo sapiens) (UniProt Q9UIK4); test: Selectivity interaction (LanthaScreen Eu Kinase Binding Assay) EUB0001632a DAPK2; settings: at 10 µM
Chain of Death-associated protein kinase 2 (Homo sapiens) (Q9UIK4 whole entry, looked up): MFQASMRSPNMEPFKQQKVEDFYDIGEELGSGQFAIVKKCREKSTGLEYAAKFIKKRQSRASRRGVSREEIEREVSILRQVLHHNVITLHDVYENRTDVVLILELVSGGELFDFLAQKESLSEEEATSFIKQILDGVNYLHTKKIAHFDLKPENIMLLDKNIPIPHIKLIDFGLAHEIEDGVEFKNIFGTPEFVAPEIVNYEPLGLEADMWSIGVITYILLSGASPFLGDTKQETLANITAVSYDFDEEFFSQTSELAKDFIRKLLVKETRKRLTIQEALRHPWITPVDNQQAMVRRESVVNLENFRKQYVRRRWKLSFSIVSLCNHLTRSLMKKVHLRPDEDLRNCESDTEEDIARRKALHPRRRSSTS

[6] = target: Tyrosine-protein kinase JAK2 (Homo sapiens, UniProt O60674); test: Selectivity interaction (Kinase panel (Invitrogen)) EUB0000639a JAK2; settings: at 200 nM
Chain of Tyrosine-protein kinase JAK2 (O60674 whole entry): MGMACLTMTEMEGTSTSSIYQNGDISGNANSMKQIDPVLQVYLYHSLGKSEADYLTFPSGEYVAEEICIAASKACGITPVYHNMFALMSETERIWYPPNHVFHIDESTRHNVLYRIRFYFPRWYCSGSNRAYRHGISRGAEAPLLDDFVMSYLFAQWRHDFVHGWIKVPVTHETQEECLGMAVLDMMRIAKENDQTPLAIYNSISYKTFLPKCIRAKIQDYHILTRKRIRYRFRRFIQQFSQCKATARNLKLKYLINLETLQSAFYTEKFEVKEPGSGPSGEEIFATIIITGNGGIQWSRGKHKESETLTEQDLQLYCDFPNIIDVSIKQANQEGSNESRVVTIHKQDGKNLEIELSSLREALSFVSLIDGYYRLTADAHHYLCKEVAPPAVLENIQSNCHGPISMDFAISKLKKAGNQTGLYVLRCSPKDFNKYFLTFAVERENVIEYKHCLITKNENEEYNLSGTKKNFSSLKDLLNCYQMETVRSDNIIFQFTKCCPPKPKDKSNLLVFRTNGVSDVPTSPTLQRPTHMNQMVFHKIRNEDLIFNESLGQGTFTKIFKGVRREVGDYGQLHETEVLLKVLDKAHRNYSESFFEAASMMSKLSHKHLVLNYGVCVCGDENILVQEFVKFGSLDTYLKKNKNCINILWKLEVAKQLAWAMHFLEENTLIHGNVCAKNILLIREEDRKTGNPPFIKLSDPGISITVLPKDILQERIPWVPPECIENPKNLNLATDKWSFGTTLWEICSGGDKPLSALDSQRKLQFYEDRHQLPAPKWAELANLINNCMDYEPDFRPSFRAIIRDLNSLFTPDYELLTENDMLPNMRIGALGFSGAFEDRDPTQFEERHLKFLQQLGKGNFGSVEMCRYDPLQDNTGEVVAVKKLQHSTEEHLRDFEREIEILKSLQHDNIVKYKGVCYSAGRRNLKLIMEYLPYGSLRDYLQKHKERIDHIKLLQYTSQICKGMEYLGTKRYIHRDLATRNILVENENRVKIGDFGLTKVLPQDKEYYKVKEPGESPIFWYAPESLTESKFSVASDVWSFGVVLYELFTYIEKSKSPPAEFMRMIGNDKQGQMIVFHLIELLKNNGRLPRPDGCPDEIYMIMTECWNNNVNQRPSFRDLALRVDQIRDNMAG

[7] = tested on: Tyrosine-protein kinase ABL1 (Homo sapiens), P00519 [F317L]; test: Selectivity interaction (KinomeScan (DiscoverX)) EUB0001049a ABL1; settings: at 1 µM
Chain of Tyrosine-protein kinase ABL1 (Homo sapiens), P00519 [F317L] (P00519 whole entry F317L): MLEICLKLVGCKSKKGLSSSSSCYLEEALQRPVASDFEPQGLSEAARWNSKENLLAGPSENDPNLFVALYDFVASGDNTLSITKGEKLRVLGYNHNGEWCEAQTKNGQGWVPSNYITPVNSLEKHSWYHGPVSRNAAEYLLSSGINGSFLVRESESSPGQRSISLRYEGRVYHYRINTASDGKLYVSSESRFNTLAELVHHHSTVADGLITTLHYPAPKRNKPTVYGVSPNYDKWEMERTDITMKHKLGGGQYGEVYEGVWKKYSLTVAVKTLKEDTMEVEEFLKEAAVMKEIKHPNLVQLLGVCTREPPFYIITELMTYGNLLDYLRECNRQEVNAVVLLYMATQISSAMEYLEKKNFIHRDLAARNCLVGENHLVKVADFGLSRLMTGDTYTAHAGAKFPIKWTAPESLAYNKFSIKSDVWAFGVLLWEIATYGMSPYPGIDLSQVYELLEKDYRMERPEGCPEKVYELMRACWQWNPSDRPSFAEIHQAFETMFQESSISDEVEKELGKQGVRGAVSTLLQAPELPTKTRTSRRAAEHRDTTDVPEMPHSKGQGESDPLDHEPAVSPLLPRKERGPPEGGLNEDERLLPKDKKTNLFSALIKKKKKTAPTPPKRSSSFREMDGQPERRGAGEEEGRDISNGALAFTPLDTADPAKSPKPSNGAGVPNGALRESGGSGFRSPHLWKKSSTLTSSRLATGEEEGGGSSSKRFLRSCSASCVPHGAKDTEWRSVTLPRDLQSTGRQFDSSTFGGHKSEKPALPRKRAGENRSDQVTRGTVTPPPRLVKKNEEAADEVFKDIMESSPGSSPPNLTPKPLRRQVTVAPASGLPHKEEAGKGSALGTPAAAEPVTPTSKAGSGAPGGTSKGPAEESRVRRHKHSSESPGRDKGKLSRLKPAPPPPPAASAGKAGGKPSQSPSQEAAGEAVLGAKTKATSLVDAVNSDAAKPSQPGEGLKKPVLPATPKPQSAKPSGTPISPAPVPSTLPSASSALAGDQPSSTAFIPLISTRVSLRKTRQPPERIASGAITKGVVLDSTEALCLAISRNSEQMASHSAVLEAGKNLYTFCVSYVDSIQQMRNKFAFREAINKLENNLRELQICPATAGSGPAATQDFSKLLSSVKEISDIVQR

[8] = target: Protein-tyrosine kinase 2-beta (Homo sapiens) (UniProt Q14289); test: Selectivity interaction (KinomeScan (DiscoverX)) EUB0001049a PTK2B; settings: at 1 µM
Chain of Protein-tyrosine kinase 2-beta (Homo sapiens) (Q14289 whole entry, looked up): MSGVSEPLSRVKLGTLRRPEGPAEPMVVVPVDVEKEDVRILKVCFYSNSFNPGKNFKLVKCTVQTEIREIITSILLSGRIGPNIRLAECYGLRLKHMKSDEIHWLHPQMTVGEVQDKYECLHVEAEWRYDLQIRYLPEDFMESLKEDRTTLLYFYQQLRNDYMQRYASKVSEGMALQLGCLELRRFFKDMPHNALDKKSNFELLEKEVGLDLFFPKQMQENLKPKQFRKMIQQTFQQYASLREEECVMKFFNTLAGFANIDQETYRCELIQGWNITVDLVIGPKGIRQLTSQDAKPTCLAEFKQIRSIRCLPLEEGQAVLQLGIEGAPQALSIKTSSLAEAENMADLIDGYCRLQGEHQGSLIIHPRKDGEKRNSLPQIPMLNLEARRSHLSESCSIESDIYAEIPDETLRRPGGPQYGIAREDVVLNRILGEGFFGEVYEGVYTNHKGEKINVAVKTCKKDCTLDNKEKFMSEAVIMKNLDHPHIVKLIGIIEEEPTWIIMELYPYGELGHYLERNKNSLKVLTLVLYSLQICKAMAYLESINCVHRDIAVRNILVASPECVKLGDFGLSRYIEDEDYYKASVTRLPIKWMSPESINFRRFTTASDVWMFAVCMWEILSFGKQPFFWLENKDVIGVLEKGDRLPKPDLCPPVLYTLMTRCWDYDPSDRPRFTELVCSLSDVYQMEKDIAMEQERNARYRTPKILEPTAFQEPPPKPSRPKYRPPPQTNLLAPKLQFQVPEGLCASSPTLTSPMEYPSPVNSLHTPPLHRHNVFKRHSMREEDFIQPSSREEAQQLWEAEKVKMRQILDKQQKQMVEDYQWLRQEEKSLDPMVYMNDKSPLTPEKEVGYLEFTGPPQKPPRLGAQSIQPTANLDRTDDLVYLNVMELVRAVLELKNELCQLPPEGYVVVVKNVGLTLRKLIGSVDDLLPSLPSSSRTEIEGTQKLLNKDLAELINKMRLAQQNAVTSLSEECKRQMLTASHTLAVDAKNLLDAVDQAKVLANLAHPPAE

[9] = target: Interferon-induced, double-stranded RNA-activated protein kinase (Homo sapiens) (UniProt P19525); test: Selectivity interaction (KinomeScan (DiscoverX)) EUB0000595a EIF2AK2; settings: at 10 µM
[10] = target: T2, Inhibitor of nuclear factor kappa-B kinase subunit beta (Homo sapiens) (UniProt O14920); test: Selectivity interaction (Ambit KINOMEscan and KiNATiv profiling in Jurkat cells) EUB0000090b IKBKB; format: cell-based; settings: at 1 µM
T2 sequence (whole entry): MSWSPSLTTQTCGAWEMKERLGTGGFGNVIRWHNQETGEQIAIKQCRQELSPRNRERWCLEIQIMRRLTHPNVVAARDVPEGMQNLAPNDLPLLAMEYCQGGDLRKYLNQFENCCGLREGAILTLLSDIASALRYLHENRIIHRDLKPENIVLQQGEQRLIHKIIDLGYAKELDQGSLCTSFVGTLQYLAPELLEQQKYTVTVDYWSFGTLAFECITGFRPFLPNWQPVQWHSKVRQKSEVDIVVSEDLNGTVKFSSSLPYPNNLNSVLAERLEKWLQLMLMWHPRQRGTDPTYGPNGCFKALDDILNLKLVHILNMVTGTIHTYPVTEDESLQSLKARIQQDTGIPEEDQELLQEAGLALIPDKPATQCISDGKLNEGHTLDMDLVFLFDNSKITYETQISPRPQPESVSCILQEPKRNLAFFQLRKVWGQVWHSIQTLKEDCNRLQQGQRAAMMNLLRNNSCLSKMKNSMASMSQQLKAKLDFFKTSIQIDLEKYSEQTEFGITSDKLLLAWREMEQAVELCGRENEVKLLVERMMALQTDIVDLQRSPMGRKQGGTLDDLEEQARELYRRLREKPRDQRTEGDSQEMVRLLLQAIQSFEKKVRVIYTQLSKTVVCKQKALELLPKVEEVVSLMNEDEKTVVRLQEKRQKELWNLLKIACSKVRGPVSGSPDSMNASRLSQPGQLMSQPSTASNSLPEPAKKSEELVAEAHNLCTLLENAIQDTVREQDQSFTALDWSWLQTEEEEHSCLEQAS

[11] = target: Cyclin-dependent kinase 2 (Homo sapiens, UniProt P24941); test: Selectivity interaction (ActivX KiNativ screen (ex vivo kinase selectivity in human PBMCs)) EUB0001619a CDK2; format: cell-based; settings: PBMC, at 1 µM

CCN(CC)CCCCNc1ncc2cc(-c3cc(OC)cc(OC)c3)c(NC(=O)NC(C)(C)C)nc2n1
% of control [1]: 100%

C=CC(=O)Nc1ccc(C(=O)Nc2[nH]nc3c2CN(C(=O)N[C@H](CN(C)C)c2ccccc2)C3(C)C)cc1
% of engagement [2]: -11.9%

O=C(NOC[C@H](O)CO)c1ccc(F)c(F)c1Nc1ccc(I)cc1F
% of control [3]: 69%
% of control [4]: 100%

Cn1cc(-n2cnc3c(NCc4nc5cc(Cl)c(Cl)cc5[nH]4)nc(N4CCOCC4)nc32)cn1
% of inhibition [5]: -5.23%

CC[C@@H]1[C@H](F)C(=O)N[C@@H]1COc1nccc2cc(C(N)=O)c(OC)cc12 [ZIMLOVISERTIB]
% of inhibition [6]: 12.5%

COc1cc(Nc2nc(C)cc(-c3cnn4nc(OC)ccc34)n2)cc(C(F)(F)F)c1
% of control [7]: 91%
% of control [8]: 99%

COCC(=O)NC/C=C/c1ccc2ncnc(Nc3ccc(Oc4ccc(C)nc4)c(C)c3)c2c1 [CP-724714]
% of control [9]: 99%

CN(C)C/C=C/C(=O)Nc1ccc(C(=O)N2CCCC(Nc3ncc(Cl)c(-c4c[nH]c5ccccc45)n3)C2)cc1 (stereo unspecified)
% of control [10]: 73%

N#Cc1cccc(-c2c[nH]c3ncnc(N4CCOCC4)c23)c1
% of inhibition [11]: 8%
